# In patent EP4803511A1, “SMALL MOLECULE COMPOUND HAVING SULFONIC ACID OR SULFINIC ACID LACTONE STRUCTURE, COMPOSITION AND USE THEREOF” (Hangzhou Phecdamed Co., Ltd., priority 2023, dated 2025):
# Tests used:
# [1] = Permeability into skin using a Franz diffusion cell; assay type: in vitro ADME, Bama miniature pig; conditions: for Concentration of the compound to be test in the skin, Mean / Concentration of the compound to be test in the skin, Skin-1 / Concentration of the compound to be test in the skin, Skin-2 / Concentration of the compound to be test in the skin, Skin-3: 0.1 mg/mL solution, 32 °C
# Protocol: Experimental materials: skin from the back of a one-month-old Bama miniature pig, 0.8-1.0 mm thick; 0.1 mg/mL solution of the compound to be test, dissolvent: 50 mM Sodium Phosphate Buffer (PB) buffer solution containing 20% ethanol.
# Experimental procedure: • 1. 400 uL solution of the compound to be test was pipetted into the feed cell, repeated three times. • 2. About 7600 uL of 50 mM PB buffer solution was added to the corresponding receiving cell. • 3. The compound to be test was permeated at 32 °C for 2 hrs and 6 hrs. • 4. At 2 hrs and 6 hrs, the skin was washed with 50 mM PB buffer solution containing 20% ethanol, the skin from the permeation area was removed and homogenized, and acetonitrile solution containing internal standard was added. • 5. Centrifugation was performed, 100 µL of the supernatant was taken and added into 100 µL of purified water, after mixing uniformly, quantitative analysis was performed by LC-MS/MS.
# [2] = test system: β-galactosidase; assay: Zebrafish oxidative aging model (menadione), β-galactosidase activity; assay type: in vivo; conditions: I-8 at 22.2 µg/mL, 22 hrs, 4 µM menadione; compared with the modeling group, statistical significance
# Protocol: (§1) Experimental animal: Healthy wild-type AB strain zebrafish at 48 hpf (hours post-fertilization)
# (§2) Healthy AB strain zebrafish were taken as experimental animal. A zebrafish oxidative aging model was constructed using chemical mutagenesis with 4 µM menadione as the modeling drug. Fucoxanthin was used as a positive control compound. After treating the zebrafish oxidative aging model with different concentrations of I-8 for 22 hrs, changes in the reactive oxygen species (ROS) content, β-galactosidase activity, and the expression of three antioxidant and anti-aging related genes (Cu/Zn-sod, Mn-sod, and ampk) were respectively detected and statistically analyzed.
# (§3) During the experiment, the modeling drug, positive compound, and I-8 were dispersed together in the culture water of zebrafish. […] Cell ROX™ Deep Red fluorescent probes and β-galactosidase staining kits were used to specifically label ROS and β-galactosidase in the fish, respectively, and the staining intensity was quantified using Image-Pro Plus software. After extracting RNA from the whole fish, the expression changes of three genes (Cu/Zn-sod, Mn-sod, and ampk) in the fish were detected at the mRNA level using Quantitative Real-time PCR (RT-qPCR). The data were statistically analyzed using GraphPad software.
# [3] = test system: wild-type AB strain zebrafish; assay: Zebrafish model, relieving anti-inflammatory efficacy (copper sulfate-induced, inflammatory cells at the neurothalamus); assay type: in vivo; conditions: zebrafish 3 dpf, 40 µM copper sulfate model; effective concentrations 7.4, 22.2, and 66.6 µg/mL
# Protocol: Experimental animal: Healthy wild-type AB strain zebrafish at 3 dpf (days post fertilization)
# Evaluation of the relieving stinging efficacy: Healthy AB strain zebrafish were taken and randomly divided into four groups: blank control, modeling group, positive control, and sample group. […] After continuous treatment for a certain period, the zebrafish's behavioral trajectories were recorded using a behavior analyzer, and the changes in total movement distance and speed were statistically analyzed, the results are shown in FIGS. 2-4. […]
# Evaluation of the relieving anti-inflammatory efficacy: As described above, the modeling drug was 40 µM copper sulfate, the positive control drug was 200 µM asiaticoside, and the concentrations of I-8 were 66.6, 22.2, and 7.4 µg/mL respectively. After treating zebrafish as described above, inflammatory cells in their bodies were stained, the number of inflammatory cells at the neurothalamus was counted, and statistical analysis was performed.
# [4] = test system: TNF-α; assay: TNF-α gene expression in HaCaT after UVB radiation (q-PCR); assay type: cell-based, human; conditions: UVB 80 mJ/cm^2, 24 hrs, dose-dependent
# Source text: In the following Test Examples 6-1 and 6-2, using immortalized keratinocytes (HaCaT) and UVB to establish a model, after the compound to be test was applied to HaCaT, the expression levels of TNF-α, IL-8, IL-1β and EP2 were detected; using immortalized keratinocytes (HaCaT) and capsaicin to establish a model, after the compound to be test was applied to HaCaT, the expression level of TRPV1 was detected, so as to evaluate the soothing effect of the test substance from multiple dimensions.
# • 1) Cell inoculation: HaCaT cells were inoculated into a 6-well plate at 6×10^5/well, cultured in an incubator (37°C, 5% CO2) for 12 hrs, and a normal control group (0 mJ/cm^2 + vehicle control), a model control group (80 mJ/cm^2 + vehicle control), a low concentration group (80 mJ/cm^2 + low concentration compound), a medium concentration group (80 mJ/cm^2 + medium concentration compound), and a high concentration group (80 mJ/cm^2 + high concentration compounds) were respectively provided. • 2) UVB modeling: The HaCaT cells were washed 3 times with D'Hanks before UVB radiation, 1 mL of D'Hanks was added into the wells, to make the cells to be immersed, and the control group was coated with tinfoil and placed in the dark. […]
# [5] = test system: ampk; assay: Zebrafish oxidative aging model (menadione), ampk gene expression by RT-qPCR; assay type: in vivo; conditions: I-8 at 2.5 µg/mL, 22 hrs, 4 µM menadione; compared to the modeling group, statistical significance
# Protocol: as §1, §2, §3
compound,measurement,setting,value
O=S1(=O)Oc2cc(O)ccc2-c2ccc(O)cc21 [Compound I-8],"Concentration of the compound to be test in the skin, Mean",[1]; Time 2 h,7167 ng/g
same,"Concentration of the compound to be test in the skin, Skin-1",[1]; Time 2 h,7450 ng/g
same,"Concentration of the compound to be test in the skin, Skin-2",[1]; Time 2 h,6600 ng/g
same,"Concentration of the compound to be test in the skin, Skin-3",[1]; Time 2 h,7450 ng/g
same,"Concentration of the compound to be test in the skin, Mean",[1]; Time 6 h,11417 ng/g
same,"Concentration of the compound to be test in the skin, Skin-1",[1]; Time 6 h,13650 ng/g
same,"Concentration of the compound to be test in the skin, Skin-2",[1]; Time 6 h,10450 ng/g
same,"Concentration of the compound to be test in the skin, Skin-3",[1]; Time 6 h,10150 ng/g
same,permeation amount,[1]; within 6 hours,10 µg/g
same,β-galactosidase activity,[2],downregulated
same,relieving anti-inflammatory efficacy,[3],certain relieving anti-inflammatory efficacy
same,expression level of TNF-α,[4],downregulating
same,expression of the ampk gene,[5],upregulated
